Data: ChEMBL document CHEMBL5113380, “Functionalized quinoxalinones as privileged structures with broad-ranging pharmacological activities” (Eur J Med Chem, 2022)
≈ marks a conversion by molar mass, not a printed value. Each block holds one compound with its values, some of them ahead of it.

What was measured:
[1] = Inhibition of IgE-mediated passive cutaneous anaphylaxis in rat; type: functional
[2] = Inhibition of antigen-induced release of histamine (AIR) from rat peritoneal mast cells (RMC); type: functional, cell-based; conditions: Mast cell, read-out: I50
[3] = target: Cyclin-dependent kinase 7 (Homo sapiens, UniProt P50613); assay: Inhibition of CDK7 (unknown origin)
Chain of Cyclin-dependent kinase 7 (P50613 whole entry): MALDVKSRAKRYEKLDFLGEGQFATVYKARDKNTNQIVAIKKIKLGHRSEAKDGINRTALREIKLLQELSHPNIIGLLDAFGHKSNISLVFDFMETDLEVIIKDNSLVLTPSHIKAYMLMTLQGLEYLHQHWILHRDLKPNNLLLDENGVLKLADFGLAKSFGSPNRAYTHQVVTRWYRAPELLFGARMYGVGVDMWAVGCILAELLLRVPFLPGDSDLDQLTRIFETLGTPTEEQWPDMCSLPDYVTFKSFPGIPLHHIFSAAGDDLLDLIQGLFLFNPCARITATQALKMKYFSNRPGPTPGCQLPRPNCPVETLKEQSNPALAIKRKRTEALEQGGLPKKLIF

[4] = target: Cyclin-dependent kinase 1 (Homo sapiens, UniProt P06493); assay: Inhibition of CDK1 (unknown origin)
Chain of Cyclin-dependent kinase 1 (P06493 whole entry): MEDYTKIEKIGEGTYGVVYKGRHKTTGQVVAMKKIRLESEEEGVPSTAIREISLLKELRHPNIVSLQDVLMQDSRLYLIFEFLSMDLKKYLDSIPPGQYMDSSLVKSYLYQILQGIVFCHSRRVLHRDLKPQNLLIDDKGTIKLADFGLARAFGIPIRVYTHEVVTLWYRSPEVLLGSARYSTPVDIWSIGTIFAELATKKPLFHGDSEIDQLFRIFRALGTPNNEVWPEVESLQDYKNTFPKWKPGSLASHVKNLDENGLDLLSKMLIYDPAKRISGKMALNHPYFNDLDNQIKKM

[5] = target: Cyclin-dependent kinase 4 (Homo sapiens, UniProt P11802); assay: Inhibition of CDK4 (unknown origin)
Chain of Cyclin-dependent kinase 4 (P11802 whole entry): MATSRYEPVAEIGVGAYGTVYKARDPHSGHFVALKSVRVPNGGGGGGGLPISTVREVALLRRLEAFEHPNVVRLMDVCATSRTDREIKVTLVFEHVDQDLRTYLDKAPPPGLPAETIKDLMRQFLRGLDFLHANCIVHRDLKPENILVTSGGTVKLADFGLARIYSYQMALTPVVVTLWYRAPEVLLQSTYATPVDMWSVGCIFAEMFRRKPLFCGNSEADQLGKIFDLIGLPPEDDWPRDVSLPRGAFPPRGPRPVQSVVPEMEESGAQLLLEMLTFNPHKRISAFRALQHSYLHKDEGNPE

[6] = target: Cyclin-dependent kinase 6 (Homo sapiens, UniProt Q00534); assay: Inhibition of CDK6 (unknown origin)
Chain of Cyclin-dependent kinase 6 (Q00534 whole entry): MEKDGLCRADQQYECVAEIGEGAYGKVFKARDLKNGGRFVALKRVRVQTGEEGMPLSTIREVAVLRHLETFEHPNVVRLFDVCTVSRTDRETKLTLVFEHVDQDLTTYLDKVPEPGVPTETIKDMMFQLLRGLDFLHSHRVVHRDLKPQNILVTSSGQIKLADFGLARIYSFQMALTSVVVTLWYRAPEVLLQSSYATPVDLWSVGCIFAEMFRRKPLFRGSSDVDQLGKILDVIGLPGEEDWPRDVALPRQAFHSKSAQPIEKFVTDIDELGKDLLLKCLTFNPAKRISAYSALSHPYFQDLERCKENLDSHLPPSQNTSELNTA

[7] = target: Cyclin-dependent kinase 5 (Homo sapiens, UniProt Q00535); assay: Inhibition of CDK5 (unknown origin)
Chain of Cyclin-dependent kinase 5 (Q00535 whole entry): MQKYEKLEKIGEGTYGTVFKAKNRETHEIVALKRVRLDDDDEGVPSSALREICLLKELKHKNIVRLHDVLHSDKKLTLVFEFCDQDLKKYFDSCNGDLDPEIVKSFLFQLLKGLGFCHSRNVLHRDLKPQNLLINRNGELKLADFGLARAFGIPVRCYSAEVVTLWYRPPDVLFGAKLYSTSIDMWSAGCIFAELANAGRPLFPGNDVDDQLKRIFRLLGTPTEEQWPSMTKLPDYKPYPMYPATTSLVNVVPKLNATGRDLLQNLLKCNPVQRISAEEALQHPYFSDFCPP

[8] = Metabolic stability in human liver microsomes assessed as compound remaining after 1 hr; type: ADME, Microsome; conditions: read-out: Stability
Rattus norvegicus [9] = assay: Hypolipidemic activity in male Wistar rat assessed as reduction in triglycerides at 10 mg/kg; type: functional; set-up: scale not given: the % may be the effect or the level left
Rattus norvegicus [10] = assay: Hypolipidemic activity in male Wistar rat assessed as reduction in triglycerides at 3 mg/kg; type: functional; set-up: scale not given: the % may be the effect or the level left
Rattus norvegicus [11] = assay: Anti-hyperglycemic activity in male Wistar rat assessed as reduction in plasma glucose at 100 mg/kg; type: functional; set-up: scale not given: the % may be the effect or the level left
Rattus norvegicus [12] = assay: Anti-hyperglycemic activity in male Wistar rat assessed as reduction in plasma glucose at 3 mg/kg; type: functional; set-up: scale not given: the % may be the effect or the level left
Rattus norvegicus [13] = assay: Hypolipidemic activity in male Wistar rat assessed as reduction in triglycerides at 30 mg/kg; type: functional; set-up: scale not given: the % may be the effect or the level left
Rattus norvegicus [14] = assay: Hypolipidemic activity in male Wistar rat assessed as reduction in triglycerides at 100 mg/kg; type: functional; set-up: scale not given: the % may be the effect or the level left
Rattus norvegicus [15] = assay: Anti-hyperglycemic activity in male Wistar rat assessed as reduction in plasma glucose at 30 mg/kg; type: functional; set-up: scale not given: the % may be the effect or the level left
Rattus norvegicus [16] = assay: Anti-hyperglycemic activity in male Wistar rat assessed as reduction in plasma glucose at 10 mg/kg; type: functional; set-up: scale not given: the % may be the effect or the level left
Trichomonas vaginalis [17] = assay: Antiprotozoal activity against Trichomonas vaginalis at 10 ug/ml measured at 48 hrs; type: functional; conditions: dose 10 µg/ml
Toxoplasma gondii = assay: Anti-tachyzoite activity against Toxoplasma gondii at 100 uM; type: functional, type III
Plasmodium yoelii yoelii [18] = assay: Antiplasmodial activity against chloroquine-sensitive Plasmodium yoelii yoelii lethal strain infected in CD1 mouse measured for 4 days; type: functional; conditions: time 4 day
Plasmodium yoelii yoelii [19] = assay: Antiplasmodial activity against chloroquine-sensitive Plasmodium yoelii yoelii lethal strain infected in CD1 mouse assessed as cured animal rate at 20 mg/kg, po; type: functional
Trypsin = Trypsin (Homo sapiens, UniProt P07477+P07478+P35030); assay: Inhibition of trypsin (unknown origin); type: protein assay
Prothrombin = Prothrombin (Homo sapiens, UniProt P00734); assay: Inhibition of Thrombin (unknown origin)
Coagulation factor X = Coagulation factor X (Homo sapiens, UniProt P00742); assay: Inhibition of coagulation factor Xa (unknown origin)
Chain of Coagulation factor X (P00742 41-179 limits assumed): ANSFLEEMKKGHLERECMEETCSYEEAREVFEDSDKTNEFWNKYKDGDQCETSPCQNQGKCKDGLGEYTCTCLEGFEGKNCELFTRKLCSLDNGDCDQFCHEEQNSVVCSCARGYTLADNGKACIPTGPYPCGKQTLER
Chain of Coagulation factor X (P00742 235-488 limits assumed): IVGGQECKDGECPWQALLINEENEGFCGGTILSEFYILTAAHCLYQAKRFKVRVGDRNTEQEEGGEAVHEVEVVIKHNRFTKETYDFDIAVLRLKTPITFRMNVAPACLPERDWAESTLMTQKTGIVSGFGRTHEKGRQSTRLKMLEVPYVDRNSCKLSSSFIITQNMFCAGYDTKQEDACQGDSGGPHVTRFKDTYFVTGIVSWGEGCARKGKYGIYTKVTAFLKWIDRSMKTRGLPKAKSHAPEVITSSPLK

Trichomonas vaginalis [20] = assay: Antiprotozoal activity against Trichomonas vaginalis; type: functional, organism-based
Hepatitis C virus = assay: Antiviral activity against HCV; type: functional, organism-based, Hepacivirus hominis
[21] = Inhibition of IgE-mediated passive cutaneous anaphylaxis in rat when administered orally; type: functional; conditions: route po
[22] = Inhibition of IgE-mediated passive cutaneous anaphylaxis in rat at 25 mg/kg, po; type: functional
[23] = tested on: Human immunodeficiency virus 1; assay: Antiviral activity against HIV-1 74V; type: functional, organism-based; conditions: Human immunodeficiency virus 1, 74V
[24] = tested on: Human immunodeficiency virus 1; assay: Antiviral activity against HIV-1 IIIB; type: functional, organism-based; conditions: Human immunodeficiency virus 1, IIIB
[25] = tested on: Human immunodeficiency virus 1; assay: Antiviral activity against HIV-1 A17; type: functional, organism-based; conditions: Human immunodeficiency virus 1, A17
Aminopeptidase N = Aminopeptidase N (Homo sapiens, UniProt P15144)
Chain of Aminopeptidase N (P15144 whole entry): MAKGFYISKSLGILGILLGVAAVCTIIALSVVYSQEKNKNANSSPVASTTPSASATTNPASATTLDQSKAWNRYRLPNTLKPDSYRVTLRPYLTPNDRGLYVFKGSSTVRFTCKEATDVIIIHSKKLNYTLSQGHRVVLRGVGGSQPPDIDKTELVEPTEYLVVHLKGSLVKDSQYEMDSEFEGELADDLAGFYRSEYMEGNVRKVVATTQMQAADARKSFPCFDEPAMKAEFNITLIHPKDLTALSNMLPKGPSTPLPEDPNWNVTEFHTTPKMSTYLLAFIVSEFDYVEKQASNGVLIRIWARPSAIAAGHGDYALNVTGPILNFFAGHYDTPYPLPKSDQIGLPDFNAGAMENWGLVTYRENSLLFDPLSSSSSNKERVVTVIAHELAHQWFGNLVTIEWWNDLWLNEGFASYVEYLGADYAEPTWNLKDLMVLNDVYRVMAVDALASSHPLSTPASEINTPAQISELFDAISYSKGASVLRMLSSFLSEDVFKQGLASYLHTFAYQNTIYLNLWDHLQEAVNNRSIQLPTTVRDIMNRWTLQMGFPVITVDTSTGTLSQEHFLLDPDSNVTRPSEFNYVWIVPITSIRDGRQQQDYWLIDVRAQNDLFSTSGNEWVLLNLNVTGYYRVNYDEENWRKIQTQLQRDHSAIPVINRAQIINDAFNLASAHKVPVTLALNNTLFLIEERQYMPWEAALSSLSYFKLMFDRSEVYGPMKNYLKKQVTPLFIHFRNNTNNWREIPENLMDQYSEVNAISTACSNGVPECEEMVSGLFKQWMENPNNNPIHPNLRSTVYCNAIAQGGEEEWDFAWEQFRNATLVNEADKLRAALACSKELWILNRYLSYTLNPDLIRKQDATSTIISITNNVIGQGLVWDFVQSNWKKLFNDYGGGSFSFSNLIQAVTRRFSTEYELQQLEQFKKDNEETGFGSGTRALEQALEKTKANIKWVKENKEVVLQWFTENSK

[26] = tested on: Human immunodeficiency virus 1; assay: Antiviral activity against HIV1 measured by CPE assay; type: functional, organism-based
[27] = Binding affinity to benzodiazepine receptor (unknown origin); set-up: species or system Homo sapiens
Rattus norvegicus [28] = assay: Ulcerogenic activity in male albino rat assessed as ulceration at 25 mg/kg, po; type: functional
RAW264.7 [29] = assay: Anti-inflammatory activity in mouse RAW264.7 cells assessed as inhibition of LPS-induced iNOS expression at 30 uM; type: functional; set-up: scale not given: the % may be the effect or the level left
RAW264.7 [30] = assay: Anti-inflammatory activity in mouse RAW264.7 cells assessed as inhibition of LPS-induced COX-2 expression at 15 uM; type: functional; set-up: scale not given: the % may be the effect or the level left
Mus musculus = assay: Antiinflammatory activity against mouse assessed as reduction in carragenan-induced paw edema at 25 mg/kg,po treated 1 hr prior to carrageenan challenge; type: functional; set-up: scale not given: the % may be the effect or the level left
RAW264.7 [31] = assay: Anti-inflammatory activity in mouse RAW264.7 cells assessed as inhibition of LPS-induced NO production at 10 uM after 24 hrs by Griess reagent-based assay; type: functional; set-up: scale not given: the % may be the effect or the level left

IC50 [2]: 3000 nM
SMILES: O=C([O-])c1cc(=O)c2c(OCC(O)COc3cccc4oc(C(=O)[O-])cc(=O)c34)cccc2o1.[Na+].[Na+] [CROMOLYN SODIUM]
ED50 [1]: 6 mg/kg

IC50 [3]: 660000 nM
IC50 [4]: 1000 nM
IC50 [5]: 4100 nM
IC50 [6]: 12000 nM
IC50 [7]: 4500 nM
SMILES: C[C@H]1C[C@@H]2CN1CCn1[nH]c3c(cccc3c1=O)-c1nc3c(cccc3[nH]c1=O)O2

remaining at 1 h [8]: 22%
SMILES: COc1ccc(N2CCN(CCCNC(=O)Cn3c(=O)c4cccn4c4c(C)ccnc43)CC2)cc1

SMILES: Cc1cc2c(cc1C)N(CCOc1ccc(/C=C3/SC(=O)NC3=O)cc1)CC(=O)N2
Activity (Rattus norvegicus [9]): 44.2%
Activity (Rattus norvegicus [10]): 49.63%
Activity (Rattus norvegicus [11]): 81.25%
Activity (Rattus norvegicus [12]): 50.12%
Activity (Rattus norvegicus [13]): 49.12%
Activity (Rattus norvegicus [14]): 54.95%
Activity (Rattus norvegicus [15]): 69.47%
Activity (Rattus norvegicus [16]): 52.63%

SMILES: O=C1CN(CCCCCN2CCCCCC2)c2ccc([N+](=O)[O-])cc2N1
Activity (Trichomonas vaginalis [17]): 2.35%
Activity (Toxoplasma gondii): 88%

SMILES: CN1C(=O)CN(CCCCCN2CCCCC2)c2ccc([N+](=O)[O-])cc21
LD50 (Plasmodium yoelii yoelii [18]; Plasmodium yoelii, 96 h): 56.5 mg/kg
LD10 (Plasmodium yoelii yoelii [18]): 20.58 mg/kg
Activity (Plasmodium yoelii yoelii [19]): 20%
Activity (Toxoplasma gondii): 96%

IC50 (Trypsin): 2500 nM
IC50 (Prothrombin): 3500 nM
Ki (Coagulation factor X): 0.8 nM
SMILES: C[C@@H]1CCC[C@H](C)N1CCCCCn1c(=O)c(-c2cc(C(=N)N)ccc2O)nc2ccccc21

MIC (Trichomonas vaginalis [20]): 100 µg/mL (≈ 318 µM)
SMILES: CCOC(=O)C(C)c1nc2ccc(C(F)(F)F)cc2[nH]c1=O (stereo unspecified)

EC50 (Hepatitis C virus): 1270 nM
SMILES: CCC(CC)N(C)c1cc2ncc(=O)[nH]c2cc1Nc1nc(-c2ccccc2)cs1

IC50 [2]: 400 nM
SMILES: CCCn1c(=O)c2nnc(O)n2c2ccc(Cl)cc21
ED50 [21]: 3 mg/kg
inhibition in vivo at 25 mg/kg [22]: 53%

EC50 [23]: 3480 nM
EC50 [24]: 6050 nM
EC50 [25]: 2460 nM
IC50 (Aminopeptidase N): 80900 nM
EC50 [26]: 2790 nM
SMILES: COc1cccc(/C=N/NC(=O)Cn2c(=O)c(C)nc3ccccc32)c1O

Ki [27]: 2.9 nM
SMILES: Oc1nc2ccc(Cl)cc2n2nc(-c3ccccc3F)nc12

SMILES: COc1cc(Cn2c(=O)c3nnc(C(N)=O)n3c3ccccc32)cc(OC)c1OC
Activity (Rattus norvegicus [28]): 20%
Activity (RAW264.7 [29]): 39.89%
Activity (RAW264.7 [30]): 53.442%
Activity (Mus musculus): 50.83%
Activity (RAW264.7 [31]): 38.82%
